Measurements published in patent US12521398B2, “Composition for treating synucleinopathies” (STANDIGM INC., priority 2019, dated 2026).
Read-outs that look alike come from different tables or passages of the source.

Tests used:
Format in all cases: cell-based
α-synuclein = molecular target: T1, α-synuclein (Homo sapiens, UniProt P37840); experiment: Dual chamber assay, cell-to-cell transmission of α-synuclein in SH-SY5Y cells; settings: 12 hours
T1 construct: expressed in transfected cells; host or cells: SH-SY5Y
Description: A slide glass was included in the plate to stain the cells after the cell culture.
In an insert well of the 12-well plate as the apical chamber, an SH-SY5Y cell line in which α-synuclein was over-expressed was seeded at a density of 4×10^4 cells/well, and in the 12-well plate as the basal chamber, an SH-SY5Y cell line in which α-synuclein was not over-expressed was seeded at a density of 4×10^4 cells/well and they were incubated at a constant temperature. The next day, the insert well was transferred to a place where the 12-well plate was placed to form a dual chamber. Thereafter, the chamber was treated with DMSO or 5 μM efavirenz and incubated at a constant temperature for 12 hours. The SH-SY5Y cells in the plate in which the chamber was treated with DMSO were used as the control. Then, the SH-SY5Y cells in the plate were subjected to immunostaining and observed using a confocal microscope. During the immunostaining, α-synuclein was stained red, and the nuclei were stained blue. Also, fluorescence intensities of α-synuclein in the control and the cells treated with efavirenz were compared. A scale bar represents 20 μm. **P<0.01, ***P<0.001 against the control. […] Also, when the fluorescence intensities of the immunostained α-synuclein were compared, the fluorescence intensity in the cells treated with efavirenz decreased by approximately 80%, compared with that of the control (FIG. 2A).
In the case of the naphazoline-administered group, the cells treated with PBS were used as the control, and the cells treated with DMSO were used as the control in the case of the chlorhexidine- and tenofovir-administered groups. A scale bar represents 20 μm. **P<0.01 and ***P<0.001 against the control.

SH-SY5Y cell line = experiment: Cytotoxicity, cell viability by MTT test; settings: 24 hours
Description: An SH-SY5Y cell line (ATCC) was used to confirm the cytotoxicity of efavirenz.
The SH-SY5Y cell line was seeded in a 96-well plate, cultured, treated with an increasing concentration (0, 5, 25 μM) of efavirenz, and then incubated at a constant temperature for 24 hours. Thereafter, cell viability was measured using an MTT test method. Cells treated with 0 μM efavirenz were used as the control. **P<0.01 against the control.
Also, in the next experiment, the cytotoxicities of chlorhexidine (N,N″″-1,6-hexanediylbis[N′-(4-chlorophenyl)(imidocarbon imidic diamide)]), naphazoline(2-(1-naphthylmethyl)-4,5-dihydro-1H-imidazole), and tenofovir (({[(2R)-1-(6-amino-9H-purin-9-yl)-[…]]oxy}methyl)phosphonic acid) to be used as reference drugs were tested in the same manner as in the cytotoxicity experiment of efavirenz. Cells were treated with chlorhexidine at a concentration of 0, 10, 100 μM, treated with naphazoline at a concentration of 0, 100, 200 μM, and treated with tenofovir at a concentration of 0, 20, 30 μM, and cells treated with each control drug at a concentration of 0 μM was used as the control. *P<0.05, ***P<0.001 against the control.

A53T α-synuclein = molecular target: T2, A53T α-synuclein (Homo sapiens, UniProt P37840, A53T); experiment: Co-culture assay of A53T EGFP and A53T mcherry SH-SY5Y cells, aggregation of α-synuclein
T2 construct: expressed in transfected cells; host or cells: SH-SY5Y (lentiviral transduction)
Description: A degeneration process of converting monomeric α-synuclein into aggregates may mainly cause Parkinson's disease. Therefore, it was tested whether efavirenz is involved in the propagation process of the over-expressed monomeric A53T α-synuclein to adjacent cells, which is converting the over-expressed monomeric α-synuclein into aggregates.
For this purpose, an SH-SY5Y cell line (A53T EGFP cells) in which EGFP-labeled A53T α-synuclein was over-expressed and an SH-SY5Y cell line (A53T mcherry cells) in which mcherry-labeled A53T α-synuclein was over-expressed were prepared using a lentivirus. Thereafter, the A53T EGFP cells and the A53T mcherry cells were mixed to prepare co-cultured cells. Then, the co-cultured cells were treated with DMSO or 5 μM efavirenz, and co-cultured in the presence of 50 μM retinoic acid (RA) for 5 days. The co-cultured cells treated with DMSO were used as the control. At 5 days of the co-culturing, the aggregated α-synuclein (inclusion body-positive cells) was confirmed using a confocal microscope (the rightmost image of fluorescence images shown in FIG. 3A). Also, each of a combined distribution of EGFP and mcherry in the A53T EGFP cells and a combined distribution of mcherry and EGFP in the A53T mcherry cells was confirmed. […] In the rightmost image of the fluorescence images of FIG. 3A, dots indicated in yellow represent the combining of mcherry and EGFP signals in the cells. In the rightmost image of the fluorescence images of FIG. 3A (a diagram in which EGFP+mcherry signals were combined), the dots indicated in yellow were counted to calculate ratios of the dots to the whole cells, and then plotted on a bar graph. A scale bar represents 20 μm, and ***P<0.001 against the control.
Also, to test whether chlorhexidine, naphazoline, and tenofovir were involved in the process of moving the over-expressed monomeric A53T α-synuclein to adjacent cells to convert the over-expressed monomeric α-synuclein into aggregates, the cells were treated with either 10 μM chlorhexidine, 100 μM naphazoline, or 20 μM tenofovir, and then tested in the same manner as in the experiment for efavirenz. However, in the case of the naphazoline-administered group, the cells treated with PBS were used as the control, and the cells treated with DMSO were also used as the control in the case of the chlorhexidine- and tenofovir-administered groups. A scale bar represents 20 μm.

[1] = 20 μM, 5 days co-culture, DMSO control
[2] = 10 μM, 5 days co-culture, DMSO control

O=C1Nc2ccc(Cl)cc2[C@@](C#CC2CC2)(C(F)(F)F)O1 [efavirenz, (4S)-6-chloro-(cyclopropylethynyl)-1,4-dihydro-4-(trifluoromethyl)-2H-3,1-benzoxazin-2-one]
decrease of fluorescence intensity of immunostained α-synuclein compared with the control (α-synuclein; 5 μM, DMSO control): approximately 80%

C[C@H](Cn1cnc2c(N)ncnc21)OCP(=O)(O)O [tenofovir]
cell viability compared with the control (SH-SY5Y cell line; 20 μM): not changed significantly | cell viability compared with the control (SH-SY5Y cell line; 30 μM): significant decrease | cell-to-cell transmission of α-synuclein compared with the control (fluorescence image) (α-synuclein; 20 μM, DMSO control): remarkably increased | amount of aggregated α-synuclein compared with the control cells (A53T α-synuclein; [1]): increased or were not significantly different | distribution of α-synuclein compared with the control cells (A53T α-synuclein; [1]): increased or were not significantly different

[H]/N=C(\N/C(=N/[H])NCCCCCCNC(=N)NC(=N)Nc1ccc(Cl)cc1)Nc1ccc(Cl)cc1 [chlorhexidine, N,N″″-1,6-hexanediylbis[N′-(4-chlorophenyl)(imidocarbonimidic diamide)]]
cell-to-cell transmission of α-synuclein compared with the control (fluorescence image) (α-synuclein; 10 μM, DMSO control): remarkably increased | amount of aggregated α-synuclein compared with the control cells (A53T α-synuclein; [2]): increased or were not significantly different | distribution of α-synuclein compared with the control cells (A53T α-synuclein; [2]): increased or were not significantly different

c1ccc2c(CC3=NCCN3)cccc2c1 [naphazoline, 2-(1-naphthylmethyl)-4,5-dihydro-1H-imidazole]
cell-to-cell transmission of α-synuclein compared with the control (fluorescence image) (α-synuclein; 100 μM, PBS control): remarkably increased | distribution of α-synuclein compared with the control cells (A53T α-synuclein): increased or were not significantly different | amount of aggregated α-synuclein compared with the control cells (A53T α-synuclein; 100 μM, 5 days co-culture, PBS control): increased or were not significantly different
